The record followed here is patent publication US7109193B2, “Tricyclic diazepines tocolytic oxytocin receptor antagonists” (Wyeth, priority 2001, dated 2006).

The inhibition is the relative decrease from the control value, in per cent.

The experiment concerns the target T1, human vasopressin V2 receptor subtype (Homo sapiens, UniProt P30518).
T1 construct: host or cells: CHO cells (pZeoSV vector)
The experiment is described as follows: Vasopressin binding in Chinese Hamster Ovary cell membranes expressing human vasopressin V2 subtype receptors. Conditions: 100 nM, CHO cell membranes, [3H]arginine vasopressin, values without parentheses. The gist of the method: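 Radioligand displacement on membranes from CHO cells stably expressing human V2 receptor, 25 to 50 μg protein/well, in 50 mM Tris-HCl pH 7.4 with MgCl2, BSA and protease inhibitors. [^3H]arginine vasopressin (8 nM working solution) incubated 60 min at room temperature; bound label measured by filtration and scintillation counting.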

T1 sequence (P30518 whole entry): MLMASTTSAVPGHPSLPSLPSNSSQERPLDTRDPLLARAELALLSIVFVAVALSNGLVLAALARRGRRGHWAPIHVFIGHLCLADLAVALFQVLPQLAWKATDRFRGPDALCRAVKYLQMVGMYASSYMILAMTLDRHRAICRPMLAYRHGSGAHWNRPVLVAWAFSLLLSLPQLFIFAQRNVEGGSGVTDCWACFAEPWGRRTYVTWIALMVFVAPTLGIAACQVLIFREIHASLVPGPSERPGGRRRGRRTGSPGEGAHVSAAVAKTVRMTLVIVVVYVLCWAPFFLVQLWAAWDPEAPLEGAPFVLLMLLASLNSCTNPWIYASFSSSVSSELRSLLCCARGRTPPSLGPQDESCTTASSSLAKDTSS

For the molecule `COc1cc(C(=O)N2Cc3cccn3Cc3ccccc32)ccc1-c1ccccc1C(F)(F)F` [Example 19D, (10,11-Dihydro-5H-pyrrolo[2,1-c][1,4]benzodiazepin-10-yl)-(2-methoxy-2′-trifluoromethyl-[1,1′-biphenyl]-4-yl)-methanone], the inhibition at 0.1 µM turned out to be 84%.
The value for `COc1ccccc1-c1ccc(C(=O)N2Cc3ccc(C(=O)N4CCN(C)CC4)n3Cc3ccccc32)cc1C` [Example 49, {10-[(2′-Methoxy-2-methyl[1,1′-biphenyl]-4-yl)carbonyl]-10,11-dihydro-5H-pyrrolo[2,1-c][1,4]benzodiazepin-3-yl}(4-methyl-1-piperazinyl)methanone] was 27%.
The value for `Cc1ccccc1-c1ccc(C(=O)N2Cc3ccc(C(=O)N4CCN(C)CC4)n3Cc3ccccc32)cc1C` [Example 50, {10-[(2,2′-Dimethyl[1,1′-biphenyl]-4-yl)carbonyl]-10,11-dihydro-5H-pyrrolo[2,1-c][1,4]benzodiazepin-3-yl}(4-methyl-1-piperazinyl)methanone] was 15%.
With `COc1cccc(-c2ccc(C(=O)N3Cc4ccc(C(=O)N5CCN(C)CC5)n4Cc4ccccc43)cc2C)c1` [Example 51, {10-[(3′-Methoxy-2-methyl[1,1′-biphenyl]-4-yl)carbonyl]-10,11-dihydro-5H-pyrrolo[2,1-c][1,4]benzodiazepin-3-yl}(4-methyl-1-piperazinyl)methanone], the inhibition at 0.1 µM was 17%.
On to `Cc1ccccc1-c1ccc(C(=O)N2Cc3ccc(C(=O)N4CCN(C)CC4)n3Cc3ccccc32)cc1` [Example 52, {10-[(2′-Methyl[1,1′-biphenyl]-4-yl)carbonyl]-10,11-dihydro-5H-pyrrolo[2,1-c][1,4]benzodiazepin-3-yl}(4-methyl-1-piperazinyl)methanone], for which the inhibition at 0.1 µM came to 17%.
The value for `COc1cc(C(=O)N2Cc3ccc(C(=O)N4CCN(C)CC4)n3Cc3ccccc32)ccc1-c1ccccc1C` [Example 53, {10-[(2-Methoxy-2′-methyl[1,1′-biphenyl]-4-yl)carbonyl]-10,11-dihydro-5H-pyrrolo[2,1-c][1,4]benzodiazepin-3-yl}(4-methyl-1-piperazinyl)methanone] was 23%; that for `COc1cccc(-c2cc(OC)c(C(=O)N3Cc4ccc(C(=O)N5CCN(C)CC5)n4Cc4ccccc43)cc2Cl)c1` [Example 54, {10-[(6-Chloro-3,3′-dimethoxy[1,1′-biphenyl]-4-yl)carbonyl]-10,11-dihydro-5H-pyrrolo[2,1-c][1,4]benzodiazepin-3-yl}(4-methyl-1-piperazinyl)methanone] was 7%; that for `COc1cc(C(=O)N2Cc3ccc(C(=O)N4CCN(C)CC4)n3Cc3ccccc32)ccc1-c1cccc2ccccc12` [Example 55, {10-[3-Methoxy-4-(1-naphthyl)benzoyl]-10,11-dihydro-5H-pyrrolo[2,1-c][1,4]benzodiazepin-3-yl}(4-methyl-1-piperazinyl)methanone] was 30%.
As to `COc1ccccc1-c1ccc(C(=O)N2Cc3ccc(C(=O)N4CCN(C)CC4)n3Cc3ccccc32)cc1OC` [Example 56, {10-[(2,2′-Dimethoxy[1,1′-biphenyl]-4-yl)carbonyl]-10,11-dihydro-5H-pyrrolo[2,1-c][1,4]benzodiazepin-3-yl}(4-methyl-1-piperazinyl)methanone], the inhibition at 0.1 µM is 27%.
The value for `COc1cccc(-c2ccc(C(=O)N3Cc4ccc(C(=O)N5CCN(C)CC5)n4Cc4ccccc43)cc2OC)c1` [Example 57, {10-[(2,3′-Dimethoxy[1,1′-biphenyl]-4-yl)carbonyl]-10,11-dihydro-5H-pyrrolo[2,1-c][1,4]benzodiazepin-3-yl}(4-methyl-1-piperazinyl)methanone] was 11%; that for `CN1CCN(C(=O)c2ccc3n2Cc2ccccc2N(C(=O)c2ccc(-c4cccc5ccccc45)cc2Cl)C3)CC1` [Example 58, {10-[2-Chloro-4-(1-naphthyl)benzoyl]-10,11-dihydro-5H-pyrrolo[2,1-c][1,4]benzodiazepin-3-yl}(4-methyl-1-piperazinyl)methanone] was 18%; that for `COc1ccccc1-c1ccc(C(=O)N2Cc3ccc(C(=O)N4CCCN(C)CC4)n3Cc3ccccc32)cc1C` [Example 62, {10-[(2′-Methoxy-2-methyl[1,1′-biphenyl]-4-yl)carbonyl]-10,11-dihydro-5H-pyrrolo[2,1-c][1,4]benzodiazepin-3-yl}(4-methyl-1,4-diazepan-1-yl)methanone] was 27%.
The same measure for `Cc1ccccc1-c1ccc(C(=O)N2Cc3ccc(C(=O)N4CCCN(C)CC4)n3Cc3ccccc32)cc1C` [Example 63, {10-[(2,2′-Dimethyl[1,1′-biphenyl]-4-yl)carbonyl]-10,11-dihydro-5H-pyrrolo[2,1-c][1,4]benzodiazepin-3-yl}(4-methyl-1,4-diazepan-1-yl)methanone]: 9%; for `COc1cccc(-c2ccc(C(=O)N3Cc4ccc(C(=O)N5CCCN(C)CC5)n4Cc4ccccc43)cc2C)c1` [Example 64, {10-[(3′-Methoxy-2-methyl[1,1′-biphenyl]-4-yl)carbonyl]-10,11-dihydro-5H-pyrrolo[2,1-c][1,4]benzodiazepin-3-yl}(4-methyl-1,4-diazepan-1-yl)methanone]: 19%.
The value for `Cc1ccccc1-c1ccc(C(=O)N2Cc3ccc(C(=O)N4CCCN(C)CC4)n3Cc3ccccc32)cc1` [Example 65, {10-[(2′-Methyl[1,1′-biphenyl]-4-yl)carbonyl]-10,11-dihydro-5H-pyrrolo[2,1-c][1,4]benzodiazepin-3-yl}(4-methyl-1,4-diazepan-1-yl)methanone] was 6%.
Turning to `COc1cc(C(=O)N2Cc3ccc(C(=O)N4CCCN(C)CC4)n3Cc3ccccc32)ccc1-c1ccccc1C` [Example 66, {10-[(2-Methoxy-2′-methyl[1,1′-biphenyl]-4-yl)carbonyl]-10,11-dihydro-5H-pyrrolo[2,1-c][1,4]benzodiazepin-3-yl}(4-methyl-1,4-diazepan-1-yl)methanone], the inhibition at 0.1 µM came to 20%.
Turning to `COc1cccc(-c2cc(OC)c(C(=O)N3Cc4ccc(C(=O)N5CCCN(C)CC5)n4Cc4ccccc43)cc2Cl)c1` [Example 67, {10-[(6-Chloro-3,3′-dimethoxy[1,1′-biphenyl]-4-yl)carbonyl]-10,11-dihydro-5H-pyrrolo[2,1-c][1,4]benzodiazepin-3-yl}(4-methyl-1,4-diazepan-1-yl)methanone], the inhibition at 0.1 µM was found to be 4%.
The same measure for `COc1cc(C(=O)N2Cc3ccc(C(=O)N4CCCN(C)CC4)n3Cc3ccccc32)ccc1-c1cccc2ccccc12` [Example 68, {10-[3-Methoxy-4-(1-naphthyl)benzoyl]-10,11-dihydro-5H-pyrrolo[2,1-c][1,4]benzodiazepin-3-yl}(4-methyl-1,4-diazepan-1-yl)methanone]: 29%.
The same measure for `COc1ccccc1-c1ccc(C(=O)N2Cc3ccc(C(=O)N4CCCN(C)CC4)n3Cc3ccccc32)cc1OC` [Example 69, {10-[(2,2′-Dimethoxy[1,1′-biphenyl]-4-yl)carbonyl]-10,11-dihydro-5H-pyrrolo[2,1-c][1,4]benzodiazepin-3-yl}(4-methyl-1,4-diazepan-1-yl)methanone]: 22%.
